Results taken from US20260234173A1, “STRUCTURED MOLECULAR VECTORS FOR ANTI-INFLAMMATORY COMPOUNDS AND USES THEREOF” (Universite Claude Bernard Lyon 1, priority 2019, published 2026).

Key:
[1] = tested on: CA1 pyramidal neurons in hippocampal slices from rats subjected to Pilo-SE; test: Hippocampal LTP in slices from Pilo-SE rats, compound perfused in the bath (ex vivo); assay type: cell-based, rat; details: slices 1-2 weeks post Pilo-SE
Method: (§1) In this experiment we used male Sprague-Dawley rats (ENVIGO, Netherlands). Pups were received at 14 day-old (postnatal day 14 (P14)) with their foster mother, and were maintained in groups of 10 in plastic cages (405 mm×255 mm×197 mm) with free access to food and water. All animal procedures are in accordance with the guidelines of the Animal Care and Use Committee of the University Claude Bernard Lyon 1.
(§2) All injected solutions were prepared in sterile saline (0.9% w/v). At weaning (postnatal day 20 (P20)), Sprague-Dawley male rat pups were first injected i.p. with lithium chloride (127 mg/Kg; Sigma-Aldrich), to decrease the dose of pilocarpine needed to trigger Status Epilepticus (SE). Scopolamine methylnitrate (1 mg/Kg; Sigma-Aldrich) was injected s.c. 18 h later, to alleviate peripheral cholinergic adverse side effects. Pilocarpine hydrochloride (25 mg/Kg; Sigma-Aldrich) was injected i.p. 30 min later, to induce SE. […] The rats were placed on a heated pad, under continuous observation, until they recovered from sedation. Following recovery, the rats were returned to the nursing mother until P23. Control rats only received saline injections. All rats were then housed in groups of 10 and weighed daily, during the 5 following days, to control for food intake, and then twice weekly until the end of experiment (three weeks post SE).
(§3) At P28-38, Sprague-Dawley rats were anesthetized with isoflurane, the forebrain was removed and placed in ice cold standard artificial cerebrospinal fluid (ACSF), consisting of (in mM): 124 NaCl, 5 KCl, 1.25 Na2HPO4, 2 MgSO4, 2 CaCl2), 26 NaHCO3, supplemented with 10 D-glucose, and bubbled with 95% O2 and 5% CO2. Hippocampal transverse slices were cut into 350 μm thick sections, using a vibratome (Leica VT1000S), and incubated in ACSF at room temperature for at least 1 h, before the transfer to the recording chamber. The ACSF used for perfusion was supplemented with picrotoxin (100 μM; Sigma-Aldrich), to block GABA-A receptors and therefore to facilitate the induction of NMDA receptors-dependent Long-Term Potentiation (LTP). CA1 pyramidal cells were visualized with a Zeiss Axioskop 2, equipped with a X40 objective, using infrared video microscopy and differential interference contrast optics. Whole-cell recordings from pyramidal neurons in the CA1 layer were obtained with patch electrodes, which were filled with a solution containing (in mM): 120 potassium gluconate, 20 KCl, 0.2 EGTA, 2 MgCl2, 10 HEPES, 4 Na2ATP, 0.3 Tris-GTP and 14 mM phosphocreatine (pH 7.3, adjusted with KOH). Drugs were applied in the bath of the hippocampal slices. Electrode resistances ranged from 3-5 MΩ. Series resistance was continually monitored, and experiments were discarded if it changed by >20%.
Capillary glass pipettes filled with ACSF and connected to an Iso-Flex stimulus isolation unit (A.M.P.I.) were placed in stratum radiatum, to evoke excitatory postsynaptic potentials (EPSPs) in CA1 pyramidal neurons. Cells were held at −70 mV to record EPSPs, and the stimulation strength was set to evoke EPSPs between 5-8 mV. LTP was induced by the theta burst pairing (TBP) protocol, which consisted of EPSPs paired with single back-propagating action potentials (b-APs), timed so that the b-AP (~15 ms delay) occurred at the peak of the EPSPs, as measured in the soma. A single burst contained five pairs delivered at 100 Hz and ten bursts were delivered at 5 Hz per sweep. Three sweeps were delivered at 10 s intervals for a total of 30 bursts (150 b-AP-EPSP pairs). […]

[2] = tested on: LPS-induced neuroinflammation (hippocampus and neocortex); test: LPS-induced neuroinflammation in vivo in rats (RT-qPCR, Neuroinflammation Index); design: species or system rat; details: 6 h post-LPS
[3] = tested on: Pilo-SE-induced inflammation in the hippocampus; test: Resolution of inflammation in hippocampus following pilocarpine-induced status epilepticus (Pilo-SE); assay type: in vivo, rat; details: 2 mg/kg i.p. after 2 h of SE, hippocampus 9 h post-SE
Method: Male Sprague-Dawley rats (Envigo, The Netherlands) were subjected to Pilo-SE at 42 days of age (185 g). SE was triggered by pilocarpine hydrochlorate (350 mg/kg, i.p.), 30 min after the administration of scopolamine methylnitrate (1 mg/kg, s.c.), used to reduce peripheral side effects of pilocarpine. After 2 h of continuous SE, rats were administered with diazepam (10 mg/kg, i.p.) to stop SE, and then immediately treated with SYN (2 mg/kg, i.p.), SYN-Pn (2 mg/kg, i.p.) in 300 μL of NaCl. Non-treated rats subjected to Pilo-SE were injected with 300 μL of NaCl (i.p.) instead of SYN or SYN-Pn. All rats received a second administration of diazepam (5 mg/kg, s.c.), 1 h after the first one, and sacrificed 9 h post-SE. The brains were collected, the hippocampus microdissected on ice, the RNA extracted and RT-qPCR performed as described above using the primer pairs shown in Table 1. The time at which rats were sacrificed was chosen based on our preliminary experiments that allowed us to determine that the peak of brain inflammation was observed 7-12 hours after the onset of SE.

[4] = Recovery of weight loss in rats after status epilepticus; assay type: in vivo, rat; details: 10 mg/Kg i.p. every day for 7 days after Pilo-SE
Method: Rats were subjected to pilocarpine-induced status epilepticus at day 0) and were administered (10 mg/Kg, i.p) Synaptamide phosphonate (SynPn) every day for 7 days. The weight of animals was daily measured. Results are described in FIG. 20. Results are expressed as the percentage of weight of animals (10-15 animals/group) at day 0. Statistical differences between Controls/SE+NaCl (*: p<0.05, ***: p<0.001) and between SE+NaCl/SE+SynPn (#: p<0.05).

[5] = tested on: hippocampal LTP in rats subjected to Pilo-SE; test: Hippocampal LTP in slices from Pilo-SE rats treated in vivo (i.p. or per os); design: species or system rat; details: 1 h after cessation of SE then daily
Method: as §1, §2, §3
Capillary glass pipettes filled with ACSF and connected to an Iso-Flex stimulus isolation unit (A.M.P.I.) were placed in stratum radiatum, to evoke excitatory postsynaptic potentials (EPSPs) in CA1 pyramidal neurons. Cells were held at −70 mV to record EPSPs, and the stimulation strength was set to evoke EPSPs between 5-8 mV. LTP was induced by the theta burst pairing (TBP) protocol, which consisted of EPSPs paired with single back-propagating action potentials (b-APs), timed so that the b-AP (~15 ms delay) occurred at the peak of the EPSPs, as measured in the soma. A single burst contained five pairs delivered at 100 Hz and ten bursts were delivered at 5 Hz per sweep. Three sweeps were delivered at 10 s intervals for a total of 30 bursts (150 b-AP-EPSP pairs). The b-APs were elicited by direct somatic current injection (1 ms, 1-2 nA). This induction protocol was always applied within 20 min of achieving whole-cell configuration, to avoid “wash-out” of LTP.

CCC=CCC=CCC=CCC=CCC=CCC=CCCC(=O)NCCP(=O)(O)O [synaptamide phosphonate]
LTP magnitude (EPSP amplitude, % of baseline) ([1]; bath application 100 nM): 132.2±5.01%
LTP magnitude (EPSP amplitude, % of baseline) ([1]; bath application 400 nM): 159.9±10.7%
LPS-mediated induction of transcripts encoding neuroinflammatory markers ([2]; 2 mg/Kg synaptamide equivalent i.p. one minute after LPS 1 mg/Kg, 21-day-old rats): partially prevent
reduction of the Neuroinflammatory Index measured both in the hippocampus and the neocortex ([2]; 2 mg/Kg synaptamide equivalent i.p. one minute after LPS): ~ 70%
TNFα-mRNA induction in response to Pilo-SE [3]: significant effect
index integrating IL1β and TNFα: peak of the inflammatory response following Pilo-SE [3]: improved effect
induction of IL1β mRNA in response to Pilo-SE ([3]; 42-day-old rats): reduced
recovery of weight loss after SE [4]: facilitates the recovery of weight loss
LTP magnitude (EPSP amplitude, % of baseline) ([5]; 2 mg/kg i.p.): 183.07±9.02%
LTP magnitude (EPSP amplitude, % of baseline) ([5]; 5 mg/kg i.p.): 162.4±11.9%
LTP magnitude (EPSP amplitude, % of baseline) ([5]; 10 mg/kg i.p.): 162.78±12.23%
LTP magnitude (EPSP amplitude, % of baseline) ([5]; 10 mg/kg per os): 110.7±4.7%
LTP magnitude (EPSP amplitude, % of baseline) ([5]; 30 mg/kg per os): 146.16±10%
LTP magnitude (EPSP amplitude, % of baseline) ([5]; 100 mg/kg per os): 162.6±9.2%
